Like-named read-outs stand apart in the source and are kept apart here.
What was measured:
Assay in all cases: Broth two-fold serial dilution MIC test
Staphylococcus aureus = format: cell-based, Staphylococcus aureus (ATCC 6538); details: Table 2, Saur
Outline: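 Broth two-fold serial dilution from 500 ppm down to 0.25 ppm, compound delivered from acetone/methanol/water stock, inoculated with standardized cell suspension and incubated at an organism-appropriate temperature. MIC is the lowest concentration giving complete growth inhibition.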

Aspergillus niger = format: cell-based, Aspergillus niger (ATCC 6275); details: Table 2, Anig, TSB media
Outline: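 Two-fold broth serial dilution from 500 ppm down to 0.25 ppm, compound stock in acetone/methanol/water 5:3:2. Vessels inoculated with standardized spore suspension harvested from agar slants, incubated at a species-appropriate temperature, then scored for growth/no growth. MIC is the lowest concentration giving complete growth inhibition.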

Escherichia coli = format: cell-based, Escherichia coli (ATCC 11229); details: Table 2, Ecol
Outline: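 Broth two-fold serial dilutions ran from 500 down to 0.25 ppm, prepared from a stock in acetone/methanol/water (5:3:2). Each tube received a standardized bacterial suspension and was incubated at a temperature suited to the species. MIC is the lowest concentration giving complete growth inhibition.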

Pseudomonas aeruginosa = format: cell-based, Pseudomonas aeruginosa (ATCC 15442); details: Table 2, Psae
Outline: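 Broth two-fold serial dilution MIC (500 to 0.25 ppm) was run against Pseudomonas aeruginosa, with compound from 1% stock in acetone/methanol/water 5:3:2. Vessels inoculated with standardized broth-grown cells were incubated, then scored for growth. MIC is the lowest concentration giving complete growth inhibition.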

[1] = Staphylococcus aureus, M9G media, read-out: MIC
[2] = Staphylococcus aureus, TSB media, read-out: MIC
[3] = Aspergillus niger, read-out: MIC
[4] = Escherichia coli, M9G media, read-out: MIC
[5] = Escherichia coli, TSB media, read-out: MIC
[6] = Pseudomonas aeruginosa, M9G media, read-out: MIC
[7] = Pseudomonas aeruginosa, TSB media, read-out: MIC

Row | Structure (SMILES) | MIC (Staphylococcus aureus; [1]) [µg/mL] | MIC (Staphylococcus aureus; [2]) [µg/mL] | MIC (Aspergillus niger; [3]) [µg/mL] | MIC (Escherichia coli; [4]) [µg/mL] | MIC (Escherichia coli; [5]) [µg/mL] | MIC (Pseudomonas aeruginosa; [6]) [µg/mL] | MIC (Pseudomonas aeruginosa; [7]) [µg/mL] | MIC (Staphylococcus aureus; M9G media) [ppm] | MIC (Staphylococcus aureus; TSB media) [ppm] | MIC (Aspergillus niger) [ppm] | MIC (Escherichia coli; M9G media) [ppm] | MIC (Escherichia coli; TSB media) [ppm] | MIC (Pseudomonas aeruginosa; M9G media) [ppm] | MIC (Pseudomonas aeruginosa; TSB media) [ppm]
1 | CCCC[N+]1(CC#CI)CCOCC1 [Compound 93, 4-n-butyl-4-(3-iodopropargyl)-morpholinium methanesulfonate] | > 500 | > 500 | 500 | 125 | 125 | > 500 | > 500 |  |  |  |  |  |  | 
2 | CC[N+]1(CC#CI)CCOCC1 [Compound 94, 4-ethyl-4-(3-iodopropargyl)-morpholinium methanesulfonate] | 500 | > 500 | > 500 | 125 | 125 | > 500 | > 500 |  |  |  |  |  |  | 
3 | CCCCCCCCCCOC(=O)CC[N+]1(CC#CI)CCOCC1 [Compound 96] |  |  |  |  |  |  |  | 32 | 64 | 16 | 8 | 64 | 500 | > 500
4 | CCCCCCCCCCOC(=O)CC[N+]1(CC#CI)CCCC1 [Compound 98, l-[2-(decyloxycarbonyl)]ethyl-1-(3-iodopropargyl)-pyrrolidinium methanesulfonte] |  |  |  |  |  |  |  | 8 | 32 | 16 | 16 | 32 | 500 | 500

The remaining lines, values ahead:

Row | MIC (Staphylococcus aureus; [1]) [µg/mL] | MIC (Staphylococcus aureus; [2]) [µg/mL] | MIC (Aspergillus niger; [3]) [µg/mL] | MIC (Escherichia coli; [4]) [µg/mL] | MIC (Escherichia coli; [5]) [µg/mL] | MIC (Pseudomonas aeruginosa; [6]) [µg/mL] | MIC (Pseudomonas aeruginosa; [7]) [µg/mL] | MIC (Staphylococcus aureus; M9G media) [ppm] | MIC (Staphylococcus aureus; TSB media) [ppm] | MIC (Aspergillus niger) [ppm] | MIC (Escherichia coli; M9G media) [ppm] | MIC (Escherichia coli; TSB media) [ppm] | MIC (Pseudomonas aeruginosa; M9G media) [ppm] | MIC (Pseudomonas aeruginosa; TSB media) [ppm] | Structure (SMILES)
5 | 2 | 4 | 16 | 2 | 4 | 16 | 125 |  |  |  |  |  |  |  | CCCCCCCCCCCC[N+]1(CC#CI)CCOCC1 [Compound 90, 4-dodecyl-4-(3-iodopropargyl)-morpholinium methanesulfonate]
6 | 1 | 8 | 32 | 4 | 8 | 250 | > 500 |  |  |  |  |  |  |  | CCCCCCCCCC[N+]1(CC#CI)CCOCC1 [Compound 91, 4-decyl-4-(3-iodopropargyl)-morpholinium methanesulfonate]
7 | 8 | 16 | 125 | 32 | 64 | > 500 | > 500 |  |  |  |  |  |  |  | CCCCCCCC[N+]1(CC#CI)CCOCC1 [Compound 92, 4-n-octyl-4-(3-iodopropargyl)-morpholinium methanesulfonate]
8 | 32 | 64 | 32 | 16 | 64 | 500 | 500 |  |  |  |  |  |  |  | CCCCCCCCCCOC(=O)CC[N+]1(CC#CI)CCOCC1 [Compound 95, 4-[2-(decyloxycarbonyl)]ethyl-4-(3-iodopropargyl)-morpholinium methanesulfonate]
9 | 8 | 16 | 16 | 16 | 32 | 250 | 500 |  |  |  |  |  |  |  | CCCCCCCCCCOC(=O)CC[N+]1(CC#CI)CCCC1 [Compound 97, 1-[2-(decyloxycarbonyl)]ethyl-1-(3-iodopropargyl)-pyrrolidinium 4-methylbenzenesulfonate]
